Read-outs that look alike come from different tables or passages of the source. Bounds are passed on as bounds.

In data set [1] the target is Nav 1.5 (Homo sapiens (Human), UniProt Q14524). In words: Inhibition of sodium channels, Red Membrane Potential Dye FLIPR assay, veratridine depolarization. Particulars: HEK-293 cells overexpressing the channel; for inhibition at 10 µM: HEK-293 cells overexpressing Nav 1.5. It is filed as cell-based.
Data set [2] has as its target Nav 1.7 (Homo sapiens (Human), UniProt Q15858). The data set is described as above. It is filed as cell-based. The note with it: HEK-293 cells overexpressing the channel; for IC50: read-out: Nav1.7 IC50.
[3] abbreviates: read-out: Nav1.5 IC50 (bound given in μM).

Nav 1.5, sequence (Q14524 whole entry): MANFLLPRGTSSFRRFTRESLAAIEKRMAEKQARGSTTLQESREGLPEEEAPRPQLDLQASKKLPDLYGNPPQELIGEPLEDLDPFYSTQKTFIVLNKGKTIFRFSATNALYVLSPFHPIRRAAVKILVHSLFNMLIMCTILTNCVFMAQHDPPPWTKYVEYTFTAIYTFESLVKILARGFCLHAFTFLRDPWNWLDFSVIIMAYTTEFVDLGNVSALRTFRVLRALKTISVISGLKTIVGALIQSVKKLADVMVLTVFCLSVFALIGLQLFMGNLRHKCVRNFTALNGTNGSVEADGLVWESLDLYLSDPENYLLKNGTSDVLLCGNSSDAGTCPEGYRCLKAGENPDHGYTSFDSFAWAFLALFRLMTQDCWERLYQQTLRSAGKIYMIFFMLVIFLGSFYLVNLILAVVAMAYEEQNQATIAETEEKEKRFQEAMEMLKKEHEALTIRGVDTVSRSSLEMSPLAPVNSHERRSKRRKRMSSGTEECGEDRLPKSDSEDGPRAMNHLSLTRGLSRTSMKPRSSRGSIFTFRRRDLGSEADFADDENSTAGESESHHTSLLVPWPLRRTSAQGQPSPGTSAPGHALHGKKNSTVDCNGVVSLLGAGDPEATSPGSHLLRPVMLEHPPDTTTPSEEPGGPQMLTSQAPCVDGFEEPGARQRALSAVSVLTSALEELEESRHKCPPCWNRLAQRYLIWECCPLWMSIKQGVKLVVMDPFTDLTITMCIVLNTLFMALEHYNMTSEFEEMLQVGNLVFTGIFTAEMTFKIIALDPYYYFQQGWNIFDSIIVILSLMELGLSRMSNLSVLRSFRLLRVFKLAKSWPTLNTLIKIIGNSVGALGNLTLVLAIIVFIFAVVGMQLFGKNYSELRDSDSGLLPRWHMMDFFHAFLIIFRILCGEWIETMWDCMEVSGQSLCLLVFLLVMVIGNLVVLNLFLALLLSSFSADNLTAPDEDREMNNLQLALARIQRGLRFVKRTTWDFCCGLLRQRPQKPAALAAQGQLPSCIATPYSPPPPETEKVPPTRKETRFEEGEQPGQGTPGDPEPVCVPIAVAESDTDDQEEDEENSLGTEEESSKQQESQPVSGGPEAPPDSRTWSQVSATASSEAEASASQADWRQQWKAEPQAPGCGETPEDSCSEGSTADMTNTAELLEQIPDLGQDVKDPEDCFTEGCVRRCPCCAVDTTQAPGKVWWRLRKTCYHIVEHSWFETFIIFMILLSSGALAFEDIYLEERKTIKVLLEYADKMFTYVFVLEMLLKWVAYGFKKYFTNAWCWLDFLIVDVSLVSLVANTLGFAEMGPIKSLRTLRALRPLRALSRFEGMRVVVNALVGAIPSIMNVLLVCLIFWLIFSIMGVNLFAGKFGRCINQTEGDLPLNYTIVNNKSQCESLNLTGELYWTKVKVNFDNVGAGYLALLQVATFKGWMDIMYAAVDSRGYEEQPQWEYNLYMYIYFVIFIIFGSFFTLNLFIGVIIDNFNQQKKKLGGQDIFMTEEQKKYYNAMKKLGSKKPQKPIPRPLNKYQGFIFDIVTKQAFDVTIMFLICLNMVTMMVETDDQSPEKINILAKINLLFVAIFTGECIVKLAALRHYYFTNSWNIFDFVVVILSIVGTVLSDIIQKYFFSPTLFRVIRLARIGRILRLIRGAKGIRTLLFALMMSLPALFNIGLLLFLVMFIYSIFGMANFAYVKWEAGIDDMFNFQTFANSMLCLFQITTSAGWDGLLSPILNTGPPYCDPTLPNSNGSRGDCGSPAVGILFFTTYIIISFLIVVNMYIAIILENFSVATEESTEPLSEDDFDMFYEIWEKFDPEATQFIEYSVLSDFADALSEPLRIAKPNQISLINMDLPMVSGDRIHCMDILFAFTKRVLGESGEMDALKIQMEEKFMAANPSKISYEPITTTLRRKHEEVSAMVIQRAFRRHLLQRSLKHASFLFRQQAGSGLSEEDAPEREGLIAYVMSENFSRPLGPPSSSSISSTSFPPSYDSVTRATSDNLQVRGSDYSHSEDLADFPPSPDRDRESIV
Nav 1.7, sequence (Q15858 whole entry): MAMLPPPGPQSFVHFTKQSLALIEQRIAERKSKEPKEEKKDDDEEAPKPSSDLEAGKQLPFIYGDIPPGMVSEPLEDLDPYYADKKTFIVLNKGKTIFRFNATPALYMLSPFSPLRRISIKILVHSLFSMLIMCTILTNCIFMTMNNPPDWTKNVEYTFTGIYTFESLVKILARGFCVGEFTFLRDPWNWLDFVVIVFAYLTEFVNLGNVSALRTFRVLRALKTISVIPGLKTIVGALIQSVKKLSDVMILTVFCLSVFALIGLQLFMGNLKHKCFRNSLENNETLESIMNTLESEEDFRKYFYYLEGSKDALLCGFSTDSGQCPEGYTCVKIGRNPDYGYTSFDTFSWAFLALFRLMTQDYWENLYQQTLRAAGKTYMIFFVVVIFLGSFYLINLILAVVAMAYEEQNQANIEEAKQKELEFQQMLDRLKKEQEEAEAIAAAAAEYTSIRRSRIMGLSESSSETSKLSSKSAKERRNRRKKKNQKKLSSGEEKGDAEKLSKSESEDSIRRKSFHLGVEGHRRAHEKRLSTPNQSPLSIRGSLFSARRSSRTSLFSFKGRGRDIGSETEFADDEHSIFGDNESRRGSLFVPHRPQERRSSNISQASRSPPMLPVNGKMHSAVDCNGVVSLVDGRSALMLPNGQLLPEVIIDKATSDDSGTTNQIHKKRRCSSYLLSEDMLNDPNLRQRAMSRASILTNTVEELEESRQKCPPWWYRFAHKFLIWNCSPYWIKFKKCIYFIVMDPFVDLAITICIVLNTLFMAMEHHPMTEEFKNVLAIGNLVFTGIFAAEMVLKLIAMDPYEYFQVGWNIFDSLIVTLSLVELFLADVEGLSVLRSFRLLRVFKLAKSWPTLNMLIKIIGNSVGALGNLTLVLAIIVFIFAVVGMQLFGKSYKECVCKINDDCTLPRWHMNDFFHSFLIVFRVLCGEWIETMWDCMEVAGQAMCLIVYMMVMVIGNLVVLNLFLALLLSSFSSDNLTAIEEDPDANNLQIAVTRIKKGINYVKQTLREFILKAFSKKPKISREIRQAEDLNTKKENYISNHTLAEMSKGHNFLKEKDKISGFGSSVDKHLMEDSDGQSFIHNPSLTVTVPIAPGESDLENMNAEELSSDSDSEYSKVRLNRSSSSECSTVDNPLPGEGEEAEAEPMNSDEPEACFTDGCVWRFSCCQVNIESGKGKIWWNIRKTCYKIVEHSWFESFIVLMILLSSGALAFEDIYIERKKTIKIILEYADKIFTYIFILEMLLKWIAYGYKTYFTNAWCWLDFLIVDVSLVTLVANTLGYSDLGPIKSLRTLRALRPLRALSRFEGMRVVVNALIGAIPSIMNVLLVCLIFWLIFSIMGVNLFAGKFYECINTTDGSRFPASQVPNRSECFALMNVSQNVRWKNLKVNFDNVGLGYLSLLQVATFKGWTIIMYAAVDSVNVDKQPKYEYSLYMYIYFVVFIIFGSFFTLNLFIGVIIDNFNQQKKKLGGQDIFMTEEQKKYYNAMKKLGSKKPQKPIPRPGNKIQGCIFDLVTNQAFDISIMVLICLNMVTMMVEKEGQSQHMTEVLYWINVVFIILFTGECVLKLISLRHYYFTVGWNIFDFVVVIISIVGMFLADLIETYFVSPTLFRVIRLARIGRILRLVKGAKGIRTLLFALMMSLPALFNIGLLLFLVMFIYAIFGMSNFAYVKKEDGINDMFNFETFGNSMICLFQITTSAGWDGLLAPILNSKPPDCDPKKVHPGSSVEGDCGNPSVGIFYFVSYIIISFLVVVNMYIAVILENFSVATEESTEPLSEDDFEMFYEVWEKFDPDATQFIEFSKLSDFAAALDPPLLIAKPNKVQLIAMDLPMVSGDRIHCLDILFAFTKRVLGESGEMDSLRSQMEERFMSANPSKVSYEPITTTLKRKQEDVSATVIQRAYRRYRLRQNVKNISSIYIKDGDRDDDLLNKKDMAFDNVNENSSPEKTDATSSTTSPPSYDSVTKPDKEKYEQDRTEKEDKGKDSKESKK

Usually IC50 stands for the concentration that gives 50% inhibition. With `O=C1OCCN1c1cc(C(F)(F)F)ccc1[C@H]1CCOc2cc(S(=O)(=O)Nc3ncccn3)ccc21` (racemic) [Example-207, (R/S)-4-(2-(2-oxooxazolidin-3-yl)-4-(trifluoromethyl)phenyl)-N-(pyrimidin-2-yl)chroman-7-sulfonamide], the IC50 in data set [1] (setting [3]) was > 10 µM; in data set [2], 49 nM.

`O=C1OCCN1c1cc(C(F)(F)F)ccc1[C@H]1CCOc2cc(S(=O)(=O)Nc3ncc(F)cn3)ccc21` (racemic) [Example-208, (R/S)—N-(5-fluoropyrimidin-2-yl)-4-(2-(2-oxooxazolidin-3-yl)-4-(trifluoromethyl)phenyl)chroman-7-sulfonamide]: the figures for the half-inhibitory concentration (IC50) in data set [1] (setting [3]) and in data set [2] were > 10 µM and 46 nM, respectively.

For orientation: inhibition means the change of the read-out against control, counted positive when it falls. Read a high inhibition as strong suppression. In data set [1], `O=C1OCCN1c1cc(C(F)(F)F)ccc1[C@H]1CCOc2cc(S(=O)(=O)Nc3cccnn3)ccc21` (racemic) [Example-209, (R/S)-4-(2-(2-oxooxazolidin-3-yl)-4-(trifluoromethyl)phenyl)-N-(pyridazin-3-yl)chroman-7-sulfonamide] yielded an inhibition at 10 µM of 28%. The IC50 in data set [2] was determined as 47 nM.

Regarding `O=C1OCCN1c1cc(C(F)(F)F)ccc1[C@H]1CCOc2cc(S(=O)(=O)Nc3cccc(F)n3)ccc21` (racemic) [Example-210, (R/S)—N-(6-fluoropyridin-2-yl)-4-(2-(2-oxooxazolidin-3-yl)-4-(trifluoromethyl)phenyl)chromane-7-sulfonamide], the IC50 in data set [1] (setting [3]) is > 10 µM; in data set [2] it was 48 nM.

As for `O=S(=O)(Nc1ncccn1)c1ccc2c(c1)OCC[C@@H]2c1ccc(C(F)(F)F)cc1CCC(F)F` (racemic) [Example-211, (R/S)-4-(2-(3,3-difluoropropyl)-4-(trifluoromethyl)phenyl)-N-(pyrimidin-2-yl)chroman-7-sulfonamide], the results for the IC50 in data set [1] (read-out: Nav1.5 IC50) and in data set [2] were 0.777 µM and 7 nM, respectively.

Take `O=S(=O)(Nc1ncc(F)cn1)c1ccc2c(c1)OCC[C@@H]2c1ccc(C(F)(F)F)cc1CCC(F)F` (racemic) [Example-212, (R/S)-4-(2-(3,3-difluoropropyl)-4-(trifluoromethyl)phenyl)-N-(5-fluoropyrimidin-2-yl)chroman-7-sulfonamide]: the IC50 in data set [1] (setting [3]) is > 10 µM; in data set [2] it was 18 nM.

As for `O=S(=O)(Nc1ccncn1)c1ccc2c(c1)OCC[C@@H]2c1ccc(C(F)(F)F)cc1CCC(F)F` (racemic) [Example-213, (R/S)-4-(2-(3,3-difluoropropyl)-4-(trifluoromethyl)phenyl)-N-(pyrimidin-4-yl)chroman-7-sulfonamide], the inhibition at 10 µM in data set [1] stood at 65%. Besides, the IC50 in data set [2] was 34 nM.

For the compound `O=S(=O)(Nc1cccnn1)c1ccc2c(c1)OCC[C@@H]2c1ccc(C(F)(F)F)cc1CCC(F)F` (racemic) [Example-214, (R/S)-4-(2-(3,3-difluoropropyl)-4-(trifluoromethyl)phenyl)-N-(pyridazin-3-yl)chroman-7-sulfonamide], the IC50 amounted to 0.635 µM in data set [1] (read-out: Nav1.5 IC50) and 2 nM in data set [2].

As to `O=S(=O)(Nc1cccc(F)n1)c1ccc2c(c1)OCC[C@@H]2c1ccc(C(F)(F)F)cc1CCC(F)F` (racemic) [Example-215, (R/S)-4-(2-(3,3-difluoropropyl)-4-(trifluoromethyl)phenyl)-N-(6-fluoropyridin-2-yl)chromane-7-sulfonamide], the IC50 in data set [1] (read-out: Nav1.5 IC50) came to 1.35 µM; in data set [2] it was 38 nM.

With `O=S(=O)(Nc1ncc(F)cn1)c1ccc2c(c1)OCC[C@@H]2c1ccc(C(F)(F)F)cc1OC1COC1` (racemic) [Example-218, (S/R)—N-(5-fluoropyrimidin-2-yl)-4-(2-(oxetan-3-yloxy)-4-(trifluoromethyl)phenyl)chroman-7-sulfonamide], the IC50 in data set [1] (setting [3]) is > 10 µM; in data set [2], 43 nM.

Consider `O=S(=O)(Nc1cccc(F)n1)c1ccc2c(c1)OCC[C@@H]2c1ccc(C(F)(F)F)cc1OC1COC1` (racemic) [Example-219, (S/R)—N-(6-fluoropyridin-2-yl)-4-(2-(oxetan-3-yloxy)-4-(trifluoromethyl)phenyl)chromane-7-sulfonamide], for which the inhibition at 10 µM in data set [1] worked out at 40%. Further, in data set [2], the IC50 came to 34 nM.

In turn, `Cc1nc(-c2cc(C(F)(F)F)ccc2[C@H]2CCOc3cc(S(=O)(=O)Nc4ncccn4)ccc32)ccc1F` (racemic) [Example-222, (R/S)-4-(2-(5-fluoro-6-methylpyridin-2-yl)-4-(trifluoromethyl)phenyl)-N-(pyrimidin-2-yl)chroman-7-sulfonamide] gave an inhibition at 10 µM in data set [1] of 73%. Moreover, the half-inhibitory concentration (IC50) in data set [2] came out at 63 nM.

With `Cc1nc(-c2cc(C(F)(F)F)ccc2[C@H]2CCOc3cc(S(=O)(=O)Nc4ncc(F)cn4)ccc32)ccc1F` (racemic) [Example-223, (R/S)-4-(2-(5-fluoro-6-methylpyridin-2-yl)-4-(trifluoromethyl)phenyl)-N-(5-fluoropyrimidin-2-yl)chroman-7-sulfonamide], at 10 µM the inhibition in data set [1] was 33%. In addition, the IC50 in data set [2] was 82 nM.

With `Cc1nc(-c2cc(C(F)(F)F)ccc2[C@H]2CCOc3cc(S(=O)(=O)Nc4cccnn4)ccc32)ccc1F` (racemic) [Example-224, (R/S)-4-(2-(5-fluoro-6-methylpyridin-2-yl)-4-(trifluoromethyl)phenyl)-N-(pyridazin-3-yl)chroman-7-sulfonamide], the concentration for half-maximal inhibition (IC50) in data set [1] (read-out: Nav1.5 IC50) was found to be 2.12 µM; in data set [2] it was 51 nM.

Consider `Cc1nc(-c2cc(C(F)(F)F)ccc2[C@H]2CCOc3cc(S(=O)(=O)Nc4cccc(F)n4)ccc32)ccc1F` (racemic) [Example-225, (R/S)-4-(2-(5-fluoro-6-methylpyridin-2-yl)-4-(trifluoromethyl)phenyl)-N-(6-fluoropyridin-2-yl)chroman-7-sulfonamide], for which the IC50 turned out to be 1.5 µM in data set [1] (read-out: Nav1.5 IC50) and 12 nM in data set [2].

Turning to `O=S1(=O)CCN(c2cc(C(F)(F)F)ccc2[C@H]2CCOc3cc(S(=O)(=O)Nc4cccnn4)ccc32)CC1` (racemic) [Example-236, (R/S)-4-(2-(1,1-dioxidothiomorpholino)-4-(trifluoromethyl)phenyl)-N-(pyridazin-3-yl)chroman-7-sulfonamide], the IC50 was > 10 µM in data set [1] (setting [3]) and 113 nM in data set [2].

Regarding `Cc1ccc(-c2cc(C(F)(F)F)ccc2[C@H]2CCOc3cc(S(=O)(=O)Nc4cccnn4)ccc32)cn1` (stereo in doubt) [Example-205, (R/S)-4-(2-(6-methylpyridin-3-yl)-4-(trifluoromethyl)phenyl)-N-(pyridazin-3-yl)chroman-7-sulfonamide], the IC50 in data set [1] (read-out: Nav1.5 IC50) was determined as 0.25 µM; in data set [2], 8 nM.

Consider `Cn1nccc1-c1cc(C(F)(F)F)ccc1[C@@H]1CCOc2cc(S(=O)(=O)Nc3cnccn3)ccc21` [Example 11, (S&R)-4-(2-(1-Methyl-1H-pyrazol-5-yl)-4-(trifluoromethyl)phenyl)-N-(pyrazin-2-yl) chromane-7-sulfonamide], for which the IC50 in data set [1] (setting [3]) was > 10 µM. The “Nav1.7 inhibition @ 10 μM” value in data set [2] is given as 96%.

Regarding `Cn1nccc1-c1cc(C(F)(F)F)ccc1[C@@H]1CCOc2cc(S(=O)(=O)Nc3ncccc3F)ccc21` [Example 17, (S&R)—N-(3-Fluoropyridin-2-yl)-4-(2-(1-methyl-1H-pyrazol-5-yl)-4-(trifluoromethyl)phenyl)chromane-7-sulfonamide], the IC50 in data set [1] (setting [3]) is > 10 µM. In addition, the “Nav1.7 inhibition @ 10 μM” value in data set [2] came to 96%.

Turning to `Cn1nccc1-c1cc(C(F)(F)F)ccc1[C@H]1CCOc2cc(S(=O)(=O)Nc3ncccc3F)ccc21` [Example 18, (S&R)—N-(3-Fluoropyridin-2-yl)-4-(2-(1-methyl-1H-pyrazol-5-yl)-4-(trifluoromethyl)phenyl)chromane-7-sulfonamide], the IC50 was > 10 µM in data set [1] (setting [3]) and 759 nM in data set [2].

`Cc1cccc(NS(=O)(=O)c2ccc3c(c2)OCC[C@H]3c2ccc(C(F)(F)F)cc2-c2ccnn2C)n1` [Example 19, (S&R)-4-(2-(1-methyl-1H-pyrazol-5-yl)-4-(trifluoromethyl)phenyl)-N-(6-methylpyridin-2-yl)chroman-7-sulfonamide]: the IC50 in data set [1] (setting [3]) was > 10 µM; in data set [2] it was 1010 nM.

On to `Cc1ccc(NS(=O)(=O)c2ccc3c(c2)OCC[C@H]3c2ccc(C(F)(F)F)cc2-c2ccnn2C)nc1` [Example 21, (S&R)-4-(2-(1-methyl-1H-pyrazol-5-yl)-4-(trifluoromethyl)phenyl)-N-(5-methylpyridin-2-yl)chroman-7-sulfonamide], for which the “Nav1.5 % inhibition @ 10 μM” value in data set [1] was determined as 57%. Moreover, the IC50 in data set [2] turned out to be 4270 nM.

Regarding `Cc1ccc(NS(=O)(=O)c2ccc3c(c2)OCC[C@@H]3c2ccc(C(F)(F)F)cc2-c2ccnn2C)nc1` [Example 22, (S&R)-4-(2-(1-methyl-1H-pyrazol-5-yl)-4-(trifluoromethyl)phenyl)-N-(5-methylpyridin-2-yl)chroman-7-sulfonamide], in data set [1], the “Nav1.5 % inhibition @ 10 μM” value is listed as 74%. Moreover, the IC50 in data set [2] was found to be 2060 nM.

For the compound `Cc1ccnc(NS(=O)(=O)c2ccc3c(c2)OCC[C@H]3c2ccc(C(F)(F)F)cc2-c2ccnn2C)c1` [Example 23, (S&R)-4-(2-(1-methyl-1H-pyrazol-5-yl)-4-(trifluoromethyl)phenyl)-N-(4-methylpyridin-2-yl)chroman-7-sulfonamide], in data set [1], the “Nav1.5 % inhibition @ 10 μM” value is listed as 59%. Further, in data set [2], the IC50 is 3690 nM.

As to `Cc1ccnc(NS(=O)(=O)c2ccc3c(c2)OCC[C@@H]3c2ccc(C(F)(F)F)cc2-c2ccnn2C)c1` [Example 24, (S&R)-4-(2-(1-methyl-1H-pyrazol-5-yl)-4-(trifluoromethyl)phenyl)-N-(4-methylpyridin-2-yl)chroman-7-sulfonamide], the results for the IC50 in data set [1] (read-out: Nav1.5 IC50) and in data set [2] were 3.92 µM and 816 nM, respectively.

Regarding `CC(C)Oc1cccc(NS(=O)(=O)c2ccc3c(c2)OCC[C@H]3c2ccc(C(F)(F)F)cc2-c2ccnn2C)n1` [Example 25, (S&R)—N-(6-isopropoxypyridin-2-yl)-4-(2-(1-methyl-1H-pyrazol-5-yl)-4-(trifluoromethyl)phenyl)chroman-7-sulfonamide], the half-inhibitory concentration (IC50) was > 10 µM in data set [1] (setting [3]) and 221 nM in data set [2].

(Values after patent US10239869B2, “Sulfonamide compounds as voltage-gated sodium channel modulators” (LUPIN LIMITED, priority 2015, dated 2019).)
